Experiments:
[1] = tested on: MDA-MB-231 (triple-negative breast cancer cells); assay: Antiproliferative activity (CellTiter-Glo cytotoxicity assay) on MDA-MB-231; assay type: cell-based, human; conditions: 96 h of incubation; MDA-MB-231 cells; stock solutions in DMSO (cisplatin in H2O/NaCl)
Protocol: (§1) With the aim of exploring the potential anticancer effects of platinum(0)-η^2-1,2-(E)ditosylethene complexes, we exposed a set of three distinct human tumor cell lines (ovarian cancer A2780 and its cisplatin-resistant clone A2780cis, and triple-negative breast cancer MDA-MB-231) to the synthesized compounds and cisplatin (positive control) for a duration of 96 h.
(§2) Two types of ovarian cancer cell lines (A2780 and A2780cis), one breast cancer cell line (MDA-MB-231) and a normal cell line (MRC-5) were cultured following the supplier’s guidelines (Sigma-Aldrich, St. Louis, MO, USA) and maintained at 37 °C in a humidified atmosphere containing 5% CO2. In 96-well plates, 1∙10^3 cancer cells and 8∙10^3 MRC-5 cells were seeded and treated after 24 h with six different concentrations of Pt(0) complexes (0.001, 0.01, 0.1, 1, 10, 100 µM). Stock solutions (10 mM) of all platinum complexes were prepared using DMSO as a solvent. After 96 h of treatment, cell viability was assessed using a CellTiter-Glo assay (Promega, Madison, WI, USA) with Tecan M1000 or SynergyH1 microplate readers (Mennedorf, Switzerland). IC50 values were determined from logistical dose–response curves using GraphPad Prism 8 software. Triplicate measurements were taken to calculate averages, and standard deviations were represented by error bars.

[2] = tested on: A2780cis (cisplatin-resistant ovarian cancer cells); assay: Antiproliferative activity (CellTiter-Glo cytotoxicity assay) on A2780cis; assay type: cell-based, human; conditions: 96 h of incubation, stock solutions in DMSO (cisplatin in H2O/NaCl)
Protocol: as §1, §2

[3] = tested on: A2780 (cisplatin-sensitive ovarian cancer cells); assay: Antiproliferative activity (CellTiter-Glo cytotoxicity assay) on A2780; assay type: cell-based, human; conditions: 96 h of incubation, stock solutions in DMSO (cisplatin in H2O/NaCl)
Protocol: as §1, §2

[4] = tested on: MRC-5 (normal lung fibroblasts); assay: Antiproliferative activity (CellTiter-Glo cytotoxicity assay) on MRC-5 normal cells; assay type: cell-based, human; conditions: 96 h of incubation, stock solutions in DMSO (cisplatin in H2O/NaCl)
Protocol: as §1, §2

[5] = Solubility in DMSO and DMSO/H2O solutions; assay type: physicochemical
Source text: Therefore, these three platinum derivatives were consequently excluded from biological analyses.

| Solubility [5] | Compound | IC50 [1] [µM] | IC50 [2] [µM] | IC50 [3] [µM] | IC50 [4] [µM] |
| --- | --- | --- | --- | --- | --- |
| – | [(TIC)2Pt(η^2-(E)-1,2-ditosylethene)] [Compound 3c] | 3.4 ± 0.4 | 3.1 ± 0.9 | 2.6 ± 0.3 | 3.5 ± 0.1 |
| – | [(P(p-F-Ph)3)(TosMIC)Pt(η^2-(E)-1,2-ditosylethene)] [Compound 4d] | 0.4 ± 0.1 | > 100 | > 100 | 14 ± 1 |
| – | [(CyIC)2Pt(η^2-(E)-1,2-ditosylethene)] [Compound 3d] | 1.2 ± 0.3 | 1.4 ± 0.2 | 1.18 ± 0.09 | – |
| – | N.N.[Cl][Pt][Cl] [Cisplatin, reference compound] | 6.4 ± 0.5 | 5.4 ± 0.1 | 0.19 ± 0.08 | 2.9 ± 0.1 |
| – | [(CH3ImCH2Ph)2Pt(η^2-(E)-1,2-ditosylethene)] [Compound 6b] | 5.4 ± 0.9 | 12.91 ± 0.06 | 1.9 ± 0.3 | 61 ± 13 |
| – | [(P(p-F-Ph)3)2Pt(η^2-(E)-1,2-ditosylethene)] [Compound 2b] | 36 ± 6 | > 100 | > 100 | > 100 |
| low solubility | [(PPh3)(CyIC)Pt(η^2-(E)-1,2-ditosylethene)] [Compound 4g] | – | – | – | – |
| – | [(PPh3)(DIC)Pt(η^2-(E)-1,2-ditosylethene)] [Compound 4a] | 1.8 ± 0.6 | > 100 | 35 ± 3 | 59 ± 8 |
| – | [(PPh3)2Pt(η^2-(E)-1,2-ditosylethene)] [Compound 2a] | 2.6 ± 0.4 | > 100 | 5.5 ± 0.6 | > 100 |
| – | [(P(p-F-Ph)3)(TIC)Pt(η^2-(E)-1,2-ditosylethene)] [Compound 4f] | 21 ± 2 | > 100 | > 100 | > 100 |
| – | [(TosMIC)2Pt(η^2-(E)-1,2-ditosylethene)] [Compound 3b] | 5.52 ± 0.03 | 11 ± 6 | 5.4 ± 0.7 | 22 ± 6 |
| low solubility | [(DIC)2Pt(η^2-(E)-1,2-ditosylethene)] [Compound 3a] | – | – | – | – |
| – | [(P(p-F-Ph)3)(CyIC)Pt(η^2-(E)-1,2-ditosylethene)] [Compound 4h] | 37 ± 13 | > 100 | 41 ± 10 | > 100 |
| – | [(PPh3)(TosMIC)Pt(η^2-(E)-1,2-ditosylethene)] [Compound 4c] | 1 ± 0.8 | > 100 | 55 ± 17 | 15 ± 3 |
| – | [(P(2-furyl)3)2Pt(η^2-(E)-1,2-ditosylethene)] [Compound 2c] | > 100 | > 100 | 17.2 ± 0.8 | > 100 |
| – | [(P(p-F-Ph)3)(DIC)Pt(η^2-(E)-1,2-ditosylethene)] [Compound 4b] | 30 ± 13 | > 100 | 85 ± 23 | > 100 |
| – | [(TolCH2ImCH2Tol)2Pt(η^2-(E)-1,2-ditosylethene)] [Compound 6a] | 36 ± 11 | 10 ± 3 | 1.6 ± 0.1 | > 100 |

| Compound | Solubility [5] | IC50 [1] [µM] | IC50 [2] [µM] | IC50 [3] [µM] | IC50 [4] [µM] |
| --- | --- | --- | --- | --- | --- |
| [(PPh3)(TIC)Pt(η^2-(E)-1,2-ditosylethene)] [Compound 4e] | low solubility | – | – | – | – |
